Reference: US12365705B2, “Epitope tags recognized by specific binders” (NANOTAG BIOTECHNOLOGIES GmbH, priority 2018, dated 2025)

Columns and labels:
[1] = system: NbALFA^ST (SEQ ID NO: 133); assay: Off-rate assay: peptide elution of ALFA-tagged shGFP2 fusions from ALFA Selector^ST resin; assay type: binding, Alpaca
Protocol: After washing 4 times with PBS, the beads were suspended in a 10-fold excess of PBS containing 200 μM ALFA^ST peptide (Ac-[sequence]-Amide, SEQ ID NO: 179) and gently mixed at room temperature. At indicated time points, specific elution from the beads was quantified using the GFP fluorescence released into the supernatant. Shown are mean fluorescence values from three independent experiments performed in parallel and standard deviations for each time point. […] C, 10 μl of ALFA Selector^ST resin saturated with either ALFA^ST-shGFP2 (top row) or ALFA^PE-shGFP2 (bottom row) were transferred into 8-well PCR strips. After removing remaining liquid, the beads were incubated with 10 μl of the indicated substances for 60 min at room temperature. Photos were taken after sedimentation of the beads.
20 μl ALFA Selector^ST or ALFA Selector^PE (NanoTag Biotechnologies) was saturated with the respective recombinant target protein. After washing 4× with PBS, the beads were suspended in a 10-fold excess of PBS containing 200 μM free ALFA^ST peptide and mixed at 25° C. Control reactions were carried out without peptide. At indicated time points, specific elution from the beads was quantified using the GFP fluorescence released into the supernatant (Q-Bit 3.0; Thermo-Fischer Scientific). Three independent experiments were performed in parallel. Mean values, standard deviations and exponential fits were calculated using GraphPad Prism 5.0. Photographic pictures were taken upon UV illumination using a Nikon D700 equipped with a 105 mm macro lens (Nikon).

[2] = system: NbALFA^PE (SEQ ID NO: 134); assay: Off-rate assay: peptide elution of ALFA^ST-tagged shGFP2 from ALFA Selector^PE resin; assay type: binding, Alpaca; conditions: for t1/2: peptide elution from ALFA Selector^PE
Protocol: FIG. 8: Interaction of ALFA^ST-tagged proteins with ALFA Selector^ST and ALFA Selector^PE resins. • A; Sketch of ALFA Selector resins bound to shGFP2-ALFA^ST. In this sketch, the ALFA Selector resin could be ALFA Selector^ST or ALFA Selector^PE. • B and C; Peptide elution from NbALFA-coupled affinity resins. […] To estimate off-rates, the resins were suspended PBS containing an excess of free ALFA^ST peptide and incubated at 25° C. Control reactions were carried out without peptide. At indicated time points, shGFP2 released from the resin was quantified. […] Lines represent fits to a single exponential. Efficient peptide elution of shGFP2-ALFA^ST from ALFA Selector^E was observed already after 15-20 min at room temperature. […] A photo was taken upon UV illumination after 3 h of elution (C). • D; Resistance towards stringent washing steps. ALFA Selector variants described in B were charged with either ALFA^ST-shGFP2 or shGFP2-ALFA^ST and incubated with a 10-fold volume of the indicated substances for 1 h at 25° C. with shaking. Without further washing steps, photos were taken upon UV illumination after sedimentation of the beads. • E; Resistance towards non-physiological pH. Similar to D. Here, however, the resin was washed to remove non-bound material after incubating at indicated pH for 30 min. Photos were taken after re-equilibration in PBS to allow for recovery of the GFP fluorescence.
After washing with PBS, the beads were suspended in a 10-fold excess of PBS containing 200 μM free ALFA^ST peptide and gently mixed at 25° C. Control reactions were carried out without peptide. At indicated time points, specific elution from the beads was quantified using the GFP fluorescence released into the supernatant. Shown are mean fluorescence readings of three experiments as well as standard deviations for each time point. Lines represent fits to a single exponential. Half times are given for peptide elution from ALFA Selector^PE only. […] FIG. 10A recapitulates data shown in FIG. 8B and is repeated here to allow for a direct comparison. Left panels: Sketch illustrating the experimental setup. The ALFA Selector resin could be ALFA Selector^ST or ALFA Selector^PE; middle panels: Experiments performed with ALFA Selector^ST; right panel: Experiments performed with ALFA Selector^PE.
Next, we site-specifically immobilized NbALFA^ST on an agarose-based resin with ultra-low background via a hydrophilic and flexible linker. Binding to the nanobody-coupled resin was analyzed using an ALFA^ST-tagged GFP variant (shGFP2; Frey, S. et al. Surface Properties Determining Passage Rates of Proteins through Nuclear Pores. Cell 174, 202-217.e9 (2018); FIG. 8A, B). As expected, shGFP2-ALFA^ST efficiently and tightly bound to the resulting resin. […]

[3] = property of tag; cited from earlier work
[4] = system: ALFA^ST-tagged target proteins (ALFA^ST-Vimentin or Tom70-EGFP-ALFA^ST); assay: Intrabody-based detection in co-transfected COS-7 cells; assay type: cell-based; conditions: co-expression in cytoplasm
Excerpt: Grey boxes indicate CDRs 1-3 (AbM definition, SEQ ID NOs: 115-117). • C: COS-7 cells transfected with Tom70-EGFP-ALFA^ST (upper row) or Tom70-EGFP-ALFA^PE (lower row) were fixed with 4% paraformaldehyde. […] First column: FluoTag-X2 anti-ALFA; second column: target detection using the intrinsic EGFP fluorescence; third column: overlay incl. […] Right column: Sketch of ALFA-tagged vimentins detected by fluorescently labeled NbALFA^ST. • E: Intrabody-based detection of ALFA^ST-tagged proteins. COS-7 cells were co-transfected with an NbALFA^ST-mScarlet-I fusion and ALFA^ST_tagged target proteins. Target proteins were detected via EGFP fluorescence (for TOM70-EGFP-ALFA^ST) or immunofluorescence using FluoTag anti-ALFA AbberiorStar635P (for ALFA^ST-FLAG-Vimentin). In parallel, NbALFA^ST-mScarlet-I was detected by the red mScarlet-I fluorescence. Note the excellent co-localization between the target protein (left column) and the mScarlet-I signal (middle column).
We next wanted to know if our NbALFA^ST can also be used as an intrabody. […]

NbALFA^PE (SEQ ID NO: 134), sequence (as listed by the source): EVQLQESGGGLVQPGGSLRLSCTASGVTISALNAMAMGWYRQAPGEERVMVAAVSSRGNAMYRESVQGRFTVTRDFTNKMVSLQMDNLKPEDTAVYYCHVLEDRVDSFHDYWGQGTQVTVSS

Molecule: ALFA^ST-shGFP2: GFP variant shGFP2 with N-terminal ALFA^ST tag
- protein remained on the resin ([1]; after 90 minutes competition with 10 column volumes of 200 μM ALFA^ST peptide): > 95%
- t1/2 ([2]; N-terminal ALFA^ST tag): ~0.833 min

Molecule: YPYDVPDYA [HA-tag]
- Water solubility [3]: poor

Molecule: shGFP2-ALFA^ST: GFP variant shGFP2 with C-terminal ALFA^ST tag
- protein remained on the resin ([1]; after 60 minutes competition with 10 column volumes of 200 μM ALFA^ST peptide): > 95%
- peptide elution from ALFA Selector^ST ([1]; excess of free ALFA^ST peptide (200 μM)): inefficient even after prolonged incubation
- time to efficient release from ALFA Selector^PE ([2]; native conditions, room temperature, competition with free ALFA^ST peptide): 15 to 20 min
- washing time over which target protein remained stably bound to ALFA Selector^PE ([2]; no free peptide): > 1 h
- t1/2 ([2]; C-terminal ALFA^ST tag): ~3 min

B1: NbALFA^ST fused to mScarlet-I: NbALFA^ST fused to red fluorescent protein mScarlet-I, used as intrabody (protein)
chain: MGSGDASDSEVQLQESGGGLVQPGGSLRLSCTASGVTISALNAMAMGWYRQAPGERRVMVAAVSERGNAMYRESVQGRFTVTRDFTNKMVSLQMDNLKPEDTAVYYCHVLEDRVDSFHDYWGQGTQVTVSSEPKTPKPQTSGSTGENVATMVSKGEAVIKEFMRFKVHMEGSMNGHEFEIEGEGEGRPYEGTQTAKLKVTKGGPLPFSWDILSPQFMYGSRAFIKHPADIPDYYKQSFPEGFKWERVMNFEDGGAVTVTQDTSLEDGTLIYKVKLRGTNFPPDGPVMQKKTMGWEASTERLYPEDGVLKGDIKMALRLKDGGRYLADFKTTYKAKKPVQMPGAYNVDRKLDITSHNEDYTVVEQYERSEGRHSTGGMDELYK
modifications: fusion protein
notes: NbALFA^ST fused to red fluorescent protein mScarlet-I, used as intrabody
- co-localization of mScarlet-I signal with target protein [4]: robustly co-localized
